Data: patent US20050226135A1, “Write-once information recording medium” (KABUSHIKI KAISHA TOSHIBA, priority 2004, published 2005)

Experiment: solubility in an organic solvent at 20° C. by an ordinary method
Assay type: physicochemical
Settings: organic solvents of amide, alcohol, ketone, nitrile and halogen systems (chloroform, N,N-dimethyl formamide, methanol, 2,2,3,3-tetrafluoro-1-propanol, ethyl methyl ketone, acetonitrile)

For `COc1ccc(OC)c(/N=N/C(=N\[N]([Ni][N](/N=C(\N=N\c2cc(OC)ccc2OC)c2ccccn2)c2ccc([N+](=O)[O-])cn2)c2ccc([N+](=O)[O-])cn2)c2ccccn2)c1` [chemical formula 3], the “solubility in an organic solvent” value was “practically applicable solubility”.
